The values that follow come from US8835472B2, “Compounds, pharmaceutical compositions and uses thereof” (Boehringer Ingelheim International GmbH, priority 2010, dated 2014).

SMILES strings stand for the structures.

Chain of human ACC2 (O00763 129-2458): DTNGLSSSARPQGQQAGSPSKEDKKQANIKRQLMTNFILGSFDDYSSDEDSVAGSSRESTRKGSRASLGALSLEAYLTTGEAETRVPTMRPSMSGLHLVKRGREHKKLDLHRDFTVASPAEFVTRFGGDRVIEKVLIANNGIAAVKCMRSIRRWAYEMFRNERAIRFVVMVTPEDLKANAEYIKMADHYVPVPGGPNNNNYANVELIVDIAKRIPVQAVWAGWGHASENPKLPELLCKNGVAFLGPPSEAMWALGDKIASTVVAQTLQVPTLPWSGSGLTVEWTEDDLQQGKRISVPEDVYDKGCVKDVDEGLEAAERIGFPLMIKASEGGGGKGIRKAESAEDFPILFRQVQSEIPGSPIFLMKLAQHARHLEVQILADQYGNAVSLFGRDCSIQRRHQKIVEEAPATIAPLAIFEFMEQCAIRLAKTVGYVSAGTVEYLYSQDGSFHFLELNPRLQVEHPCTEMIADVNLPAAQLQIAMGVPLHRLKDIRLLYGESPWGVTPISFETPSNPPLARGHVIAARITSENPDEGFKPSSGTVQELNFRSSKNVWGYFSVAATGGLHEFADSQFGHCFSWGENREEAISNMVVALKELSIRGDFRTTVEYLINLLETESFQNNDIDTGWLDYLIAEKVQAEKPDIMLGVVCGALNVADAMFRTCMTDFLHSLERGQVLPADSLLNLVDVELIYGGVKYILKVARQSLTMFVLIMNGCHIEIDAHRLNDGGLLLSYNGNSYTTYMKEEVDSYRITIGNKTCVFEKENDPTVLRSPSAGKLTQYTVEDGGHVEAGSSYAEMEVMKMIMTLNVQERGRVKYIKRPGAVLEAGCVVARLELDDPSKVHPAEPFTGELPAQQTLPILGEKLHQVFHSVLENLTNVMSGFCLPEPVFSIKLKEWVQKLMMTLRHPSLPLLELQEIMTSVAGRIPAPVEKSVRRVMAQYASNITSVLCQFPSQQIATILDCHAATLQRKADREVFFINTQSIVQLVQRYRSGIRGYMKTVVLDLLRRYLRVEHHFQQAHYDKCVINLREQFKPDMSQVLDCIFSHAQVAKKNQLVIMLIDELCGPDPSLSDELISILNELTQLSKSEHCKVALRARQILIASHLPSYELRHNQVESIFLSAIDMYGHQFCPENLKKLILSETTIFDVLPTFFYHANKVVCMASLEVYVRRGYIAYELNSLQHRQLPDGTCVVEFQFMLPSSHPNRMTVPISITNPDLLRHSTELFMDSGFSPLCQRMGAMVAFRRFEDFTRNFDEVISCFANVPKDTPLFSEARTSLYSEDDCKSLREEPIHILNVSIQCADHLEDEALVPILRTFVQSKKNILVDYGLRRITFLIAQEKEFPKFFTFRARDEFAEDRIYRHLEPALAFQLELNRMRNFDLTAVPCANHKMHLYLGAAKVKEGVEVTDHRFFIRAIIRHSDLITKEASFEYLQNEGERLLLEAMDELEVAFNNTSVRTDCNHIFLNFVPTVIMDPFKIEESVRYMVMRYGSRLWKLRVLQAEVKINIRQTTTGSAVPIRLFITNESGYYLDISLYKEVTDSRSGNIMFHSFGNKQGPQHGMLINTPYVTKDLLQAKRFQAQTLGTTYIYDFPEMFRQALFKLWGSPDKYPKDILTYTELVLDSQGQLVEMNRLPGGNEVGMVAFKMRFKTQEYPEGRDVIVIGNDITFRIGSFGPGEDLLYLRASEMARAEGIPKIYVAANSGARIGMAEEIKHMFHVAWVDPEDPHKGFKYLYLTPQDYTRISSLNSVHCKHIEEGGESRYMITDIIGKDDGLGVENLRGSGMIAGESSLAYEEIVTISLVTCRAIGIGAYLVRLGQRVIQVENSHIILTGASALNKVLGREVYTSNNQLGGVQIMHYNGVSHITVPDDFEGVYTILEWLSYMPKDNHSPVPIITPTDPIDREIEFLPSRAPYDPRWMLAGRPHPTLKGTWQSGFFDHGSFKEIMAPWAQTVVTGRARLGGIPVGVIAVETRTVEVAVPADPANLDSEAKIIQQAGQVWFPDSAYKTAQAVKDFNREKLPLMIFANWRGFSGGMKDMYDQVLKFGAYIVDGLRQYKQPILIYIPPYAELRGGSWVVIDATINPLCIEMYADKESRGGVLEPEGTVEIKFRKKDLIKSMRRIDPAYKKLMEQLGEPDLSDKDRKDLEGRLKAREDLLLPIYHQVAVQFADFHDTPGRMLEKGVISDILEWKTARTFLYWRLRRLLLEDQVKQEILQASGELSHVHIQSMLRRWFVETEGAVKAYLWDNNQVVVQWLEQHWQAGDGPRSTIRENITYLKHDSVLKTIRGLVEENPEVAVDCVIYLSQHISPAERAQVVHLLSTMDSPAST

This assay has as its target human ACC2 (Homo sapiens (Human), UniProt O00763). Kind of assay: ACC2 assay, spectrophotometric 384 well assay (NADH-linked, coupled lactate dehydrogenase/pyruvate kinase reaction). The class given is biochemical. As to conditions: hACC2 construct lacking the 128 N-terminal amino acids; 25° C., 340 nm over 15 minutes. An outline of the steps:
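N-terminally truncated human ACC2 (lacking 128 residues) expressed in insect cells; coupled PK/LDH read-out of ADP as NADH loss at 340 nm, 15 min, 25 °C. Tris pH 7.5 with citrate and KHCO3; 200 μM acetyl-CoA, 500 μM ATP, 1% DMSO.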
`CC(=O)NC(C)Cc1ccc(C#Cc2cnc(Oc3ccc4cn[nH]c4c3)nc2)cc1` (stereo not shown) [Example 12.39] yielded an IC50 of 3200 nM. With `COc1ccc(Oc2ncc(C#Cc3ccc(CC(C)NC(C)=O)cc3)cn2)cn1` (stereo not shown) [Example 12.40] the figure was 630 nM; with `CC(=O)NC(C)Cc1ccc(C#Cc2cnc(OC(C)CF)nc2)cc1` (stereo not shown) [Example 12.41], 520 nM; with `CC(=O)NC(C)Cc1ccc(C#Cc2cnc(OC(C)CC(F)(F)F)nc2)cc1` (stereo not shown) [Example 12.42], 350 nM. Consider `CC(=O)NC(C)Cc1ccc(C#Cc2cnc(OCC(C)(F)F)nc2)cc1` (stereo not shown) [Example 12.43], for which 2600 nM corresponded to half-maximal inhibition (IC50). With `CC(=O)NC(C)Cc1ccc(C#Cc2cnc(OC(CF)CF)nc2)cc1` (stereo not shown) [Example 12.44] the figure was 1000 nM; with `CC(=O)NC(C)Cc1ccc(C#Cc2cnc(OCC3CC3(F)F)nc2)cc1` (stereo not shown) [Example 12.45], 180 nM; with `COc1ccccc1Oc1ncc(C#Cc2ccc(CC(C)NC(C)=O)cc2)cn1` (stereo not shown) [Example 12.46], 1000 nM. With `CC(=O)NC(C)Cc1ccc(C#Cc2cnc(Oc3cccc(F)c3)nc2)cc1` (stereo not shown) [Example 12.47] the figure was 130 nM; with `CC(=O)NC(C)Cc1ccc(C#Cc2cnc(Oc3ccc(F)cc3)nc2)cc1` (stereo not shown) [Example 12.49], 230 nM.

With `COc1ccc(Oc2ncc(C#Cc3ccc(CC(C)NC(C)=O)cc3)cn2)cc1` (stereo not shown) [Example 12.50], the midpoint of inhibition, the IC50, lay at 530 nM. With `CC(=O)NC(C)Cc1ccc(C#Cc2cnc(Oc3cccnc3)nc2)cc1` (stereo not shown) [Example 12.51] the figure was 1500 nM; with `CC(=O)NC(C)Cc1ccc(C#Cc2cnc(OC3Cc4ccccc4C3)nc2)cc1` (stereo not shown) [Example 12.52], 430 nM. With `CC(=O)NC(C)Cc1ccc(C#Cc2cnc(OCc3ccccc3F)nc2)cc1` (stereo not shown) [Example 12.53] the figure was 9000 nM; with `CC(=O)NC(C)Cc1ccc(C#Cc2cnc(OCc3cccc(F)c3)nc2)cc1` (stereo not shown) [Example 12.54], 230 nM.

Compound `CC(=O)NC(C)Cc1ccc(C#Cc2cnc(OCc3ccc(F)cc3)nc2)cc1` (stereo not shown) [Example 12.55] registered an IC50 of 170 nM. With `CC(=O)NC(C)Cc1ccc(C#Cc2cnc(OCc3cccnc3)nc2)cc1` (stereo not shown) [Example 12.56] the figure was 4900 nM; with `CC(=O)NC(C)Cc1ccc(C#Cc2cnc(OCc3ccccn3)nc2)cc1` (stereo not shown) [Example 12.57], 1800 nM. The compound `C[C@H](NC(=O)C1CC1)c1ccc(C#Cc2cnc(OCC3CC3)nc2)cc1` [Example 12.58] returned a half-maximal inhibitory concentration (IC50) of 4500 nM. With `CC(=O)N[C@@H](C)c1ccc(C#Cc2cnc(OCC3CC3)nc2)cc1` [Example 12.59] the figure was 1600 nM. With `CC(=O)N[C@@H](C)c1ccc(C#Cc2cnc(OCc3ccccc3)nc2)cc1` [Example 12.60], the IC50 is 540 nM. With `CC(=O)N[C@@H](C)c1ccc(C#Cc2cnc(OCc3ccoc3)nc2)cc1` [Example 12.61] the figure was 790 nM; with `CC(=O)N[C@@H](C)c1ccc(C#Cc2cnc(OC3CCC3)nc2)cc1` [Example 12.62], 240 nM.

`C[C@H](NC(=O)C1CC1)c1ccc(C#Cc2cnc(OCCC(F)(F)F)nc2)cc1` [Example 12.63] had a half-maximal inhibitory concentration (IC50) of 1100 nM. With `CC(=O)N[C@@H](C)c1ccc(C#Cc2cnc(OCCC(F)(F)F)nc2)cc1` [Example 12.64] the figure was 550 nM; with `C[C@H](NC(=O)C1CC1)c1ccc(C#Cc2cnc(OC3CCC3)nc2)cc1` [Example 12.65], 450 nM; with `CCOc1ncc(C#Cc2ccc([C@H](C)NC(=O)C3CC3)cc2)cn1` [Example 12.66], 2100 nM. With `C[C@H](NC(=O)C1CC1)c1ccc(C#Cc2cnc(Oc3ccccc3)nc2)cc1` [Example 12.67] the figure was 3900 nM; with `CC(=O)N[C@@H](C)c1ccc(C#Cc2cnc(Oc3ccccc3)nc2)cc1` [Example 12.68], 980 nM; with `CCOc1ncc(C#Cc2ccc([C@H](C)NC(C)=O)cc2)cn1` [Example 12.69], 2600 nM. With `COCCN(C)c1ncc(C#Cc2ccc(CC(C)NC(C)=O)cc2)cn1` (stereo not shown) [Example 13.1, N-(1-(4-((2-((2-Methoxyethyl)(methyl)amino)pyrimidin-5-yl)ethynyl)phenyl)propan-2-yl)acetamide] the figure was 3200 nM; with `CCCNc1ncc(C#Cc2ccc(CC(C)NC(C)=O)cc2)cn1` (stereo not shown) [Example 13.2], 210 nM; with `CCN(C)c1ncc(C#Cc2ccc(CC(C)NC(C)=O)cc2)cn1` (stereo not shown) [Example 13.3], 1000 nM. Consider `CC(=O)NC(C)Cc1ccc(C#Cc2cnc(NC(C)C)nc2)cc1` (stereo not shown) [Example 13.4], for which the IC50 was determined as 170 nM.

Compound `COC(=O)CNc1ncc(C#Cc2ccc(CC(C)NC(C)=O)cc2)cn1` (stereo not shown) [Example 13.5] had an IC50 of 1400 nM. With `CC(=O)NC(C)Cc1ccc(C#Cc2cnc(NCc3ccccc3)nc2)cc1` (stereo not shown) [Example 13.6] the figure was 100 nM. With `CC(=O)NC(C)Cc1ccc(C#Cc2cnc(N3CCCCC3)nc2)cc1` (stereo not shown) [Example 13.7] the figure was 260 nM; with `CC(=O)NC(C)Cc1ccc(C#Cc2cnc(NC3CCCC3)nc2)cc1` (stereo not shown) [Example 13.8], 220 nM; with `CC(=O)NC(C)Cc1ccc(C#Cc2cnc(NCC3CC3)nc2)cc1` (stereo not shown) [Example 13.10], 450 nM. With `CC(=O)NC(C)Cc1ccc(C#Cc2cnc(NC(C)C(C)C)nc2)cc1` (stereo not shown) [Example 13.11] the figure was 230 nM; with `CC(=O)NC(C)Cc1ccc(C#Cc2cnc(NC3CCC3)nc2)cc1` (stereo not shown) [Example 13.12], 110 nM. For the compound `CCNc1ncc(C#Cc2ccc(CC(C)NC(C)=O)cc2)cn1` (stereo not shown) [Example 13.13], 230 nM corresponded to half-maximal inhibition (IC50).

`COCC(C)Nc1ncc(C#Cc2ccc(CC(C)NC(C)=O)cc2)cn1` (stereo not shown) [Example 13.14]: the IC50 worked out at 1900 nM. With `CCCC(C)Nc1ncc(C#Cc2ccc(CC(C)NC(C)=O)cc2)cn1` (stereo not shown) [Example 13.15] the figure was 160 nM; with `CC(=O)NC(C)Cc1ccc(C#Cc2cnc(N(C)C3CCCC3)nc2)cc1` (stereo not shown) [Example 13.16], 190 nM. With `CC(=O)NC(C)Cc1ccc(C#Cc2cnc(NCC3CCC3)nc2)cc1` (stereo not shown) [Example 13.17] the figure was 180 nM; with `CC(=O)NC(C)Cc1ccc(C#Cc2cnc(N3CC4CCCC4C3)nc2)cc1` (stereo not shown) [Example 13.18], 130 nM; with `CC(=O)NC(C)Cc1ccc(C#Cc2cnc(NC3CCOC3)nc2)cc1` (stereo not shown) [Example 13.19], 670 nM. With `CC(=O)NC(C)Cc1ccc(C#Cc2cnc(NCC(C)C)nc2)cc1` (stereo not shown) [Example 13.20] the figure was 260 nM.

The compound `CCC(C)N(C)c1ncc(C#Cc2ccc(CC(C)NC(C)=O)cc2)cn1` (stereo not shown) [Example 13.21] gave an IC50 of 210 nM.

In the case of `CC(=O)NC(C)Cc1ccc(C#Cc2cnc(N3CCOCC3)nc2)cc1` (stereo not shown) [Example 13.22], the concentration for half-maximal inhibition (IC50) is 730 nM. With `CCN(CC)c1ncc(C#Cc2ccc(CC(C)NC(C)=O)cc2)cn1` (stereo not shown) [Example 13.23] the figure was 1200 nM. With `CC(C)Nc1ncc(C#Cc2ccc(CC(C)NC(=O)N(C)C)cc2)cn1` (stereo not shown) [Example 13.24] the figure was 200 nM; with `CCC(C)Nc1ncc(C#Cc2ccc(CC(C)NC(=O)N(C)C)cc2)cn1` (stereo not shown) [Example 13.25], 220 nM. With `CCNc1ncc(C#Cc2ccc(CC(C)NC(=O)N(C)C)cc2)cn1` (stereo not shown) [Example 13.26] the figure was 200 nM; with `CC(Cc1ccc(C#Cc2cnc(NC3CCC3)nc2)cc1)NC(=O)N(C)C` (stereo not shown) [Example 13.27], 120 nM. With `COC(=O)NC(C)Cc1ccc(C#Cc2cnc(NCc3ccncc3)nc2)cc1` (stereo not shown) [Example 13.28], the IC50 worked out at 3400 nM. Turning to `COC(=O)NC(C)Cc1ccc(C#Cc2cnc(N3CCC4(CC4)C3)nc2)cc1` (stereo not shown) [Example 13.29], the 50% inhibitory concentration (IC50) turned out to be 610 nM.

Turning to `COC(=O)NC(C)Cc1ccc(C#Cc2cnc(N3CC4CCCC4C3)nc2)cc1` (stereo not shown) [Example 13.30], the IC50 stood at 360 nM.

`COC(=O)NC(C)Cc1ccc(C#Cc2cnc(NC3CCC3)nc2)cc1` (stereo not shown) [Example 13.31] had an IC50 of 500 nM.

`COC(=O)NC(C)Cc1ccc(C#Cc2cnc(N3CCCCC3)nc2)cc1` (stereo not shown) [Example 13.32]: the IC50 is 410 nM. With `COC(=O)NC(C)Cc1ccc(C#Cc2cnc(NCc3cccnc3)nc2)cc1` (stereo not shown) [Example 13.33] the figure was 1800 nM; with `COC(=O)NC(C)Cc1ccc(C#Cc2cnc(N3CCCC3)nc2)cc1` (stereo not shown) [Example 13.34], 4700 nM.

Consider `COC(=O)NC(C)Cc1ccc(C#Cc2cnc(NC3CCCC3)nc2)cc1` (stereo not shown) [Example 13.35], for which the midpoint of inhibition, the IC50, lay at 290 nM. With `COC(=O)NC(C)Cc1ccc(C#Cc2cnc(NC3CC3)nc2)cc1` (stereo not shown) [Example 13.36] the figure was 1600 nM; with `CC(Cc1ccc(C#Cc2cnc(NCc3ccncc3)nc2)cc1)NC(=O)C1CC1` (stereo not shown) [Example 13.37], 2600 nM. With `COC(=O)NC(C)Cc1ccc(C#Cc2cnc(NC(C)C)nc2)cc1` (stereo not shown) [Example 13.38] the figure was 690 nM; with `CCC(C)Nc1ncc(C#Cc2ccc(CC(C)NC(=O)OC)cc2)cn1` (stereo not shown) [Example 13.39], 640 nM. With `COC(=O)NC(C)Cc1ccc(C#Cc2cnc(N3CCC3)nc2)cc1` (stereo not shown) [Example 13.40] the figure was 2200 nM; with `CCNc1ncc(C#Cc2ccc(CC(C)NC(=O)OC)cc2)cn1` (stereo not shown) [Example 13.41], 2400 nM; with `COC(=O)NC(C)Cc1ccc(C#Cc2cnc(NCCF)nc2)cc1` (stereo not shown) [Example 13.42], 4500 nM.

`CC(Cc1ccc(C#Cc2cnc(N3CC4CCCC4C3)nc2)cc1)NC(=O)C1CC1` (stereo not shown) [Example 13.43] gave an IC50 of 580 nM. With `CC(Cc1ccc(C#Cc2cnc(NC3CCC3)nc2)cc1)NC(=O)C1CC1` (stereo not shown) [Example 13.44] the figure was 320 nM; with `CC(Cc1ccc(C#Cc2cnc(N3CCCCC3)nc2)cc1)NC(=O)C1CC1` (stereo not shown) [Example 13.45], 910 nM; with `CC(Cc1ccc(C#Cc2cnc(NCc3cccnc3)nc2)cc1)NC(=O)C1CC1` (stereo not shown) [Example 13.46], 2700 nM. With `CC(Cc1ccc(C#Cc2cnc(NC3CCCC3)nc2)cc1)NC(=O)C1CC1` (stereo not shown) [Example 13.47] the figure was 600 nM.

As a reminder, the IC50 is the concentration that inhibits the measured activity by half. A high value points to weaker potency in that assay.
